Reference: patent US8937039B2, “Peptide-based peroxidase inhibitors and methods of using same” (The Medical College of Wisconsin, Inc., priority 2009, dated 2015)
Entries after “also recorded” stand apart in the source; their conditions may differ. Residues, ends and D or L forms follow the SMILES beside them.

Tests used:
MPO [1] = target: T1, MPO (Homo sapiens, UniProt P05164); assay: MPO-catalyzed HOCl production (taurine/TMB assay); assay type: biochemical; set-up: purchased Lee Biosolutions (St. Louis, Mo.); details: for Dose-dependent effect on MPO-catalyzed HOCl production (in words): increasing concentrations, FIG. 14C/14D; for Effect on MPO HOCl production at equimolar concentration (in words): 12.5 μM
T1 sequence (P05164 49-745): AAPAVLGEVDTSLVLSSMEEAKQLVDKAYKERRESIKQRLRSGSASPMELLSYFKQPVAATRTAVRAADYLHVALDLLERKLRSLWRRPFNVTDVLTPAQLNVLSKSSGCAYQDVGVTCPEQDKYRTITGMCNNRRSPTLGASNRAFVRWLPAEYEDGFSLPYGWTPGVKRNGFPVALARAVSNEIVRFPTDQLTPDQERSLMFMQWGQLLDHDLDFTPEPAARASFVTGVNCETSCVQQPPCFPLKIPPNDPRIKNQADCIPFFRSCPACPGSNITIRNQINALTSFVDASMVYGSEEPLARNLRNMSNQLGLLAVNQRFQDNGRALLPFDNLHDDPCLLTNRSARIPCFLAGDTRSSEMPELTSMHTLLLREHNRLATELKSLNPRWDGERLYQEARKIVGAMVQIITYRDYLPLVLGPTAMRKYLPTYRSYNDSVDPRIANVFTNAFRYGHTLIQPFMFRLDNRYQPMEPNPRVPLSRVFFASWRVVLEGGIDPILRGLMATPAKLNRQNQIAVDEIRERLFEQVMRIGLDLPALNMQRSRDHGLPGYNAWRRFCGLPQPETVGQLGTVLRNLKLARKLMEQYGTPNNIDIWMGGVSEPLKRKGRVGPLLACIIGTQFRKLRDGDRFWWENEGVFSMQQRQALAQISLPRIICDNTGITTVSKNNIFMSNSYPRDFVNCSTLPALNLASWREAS
Method: MPO-mediated HOCl Production. MPO (20 nM) was incubated with H2O2 (50 μM), NaCl (150 mM), taurine (5 mM) and increasing concentrations of KYC in phosphate buffer (100 mM, pH 7.4) which also contained diethylene triamine pentaacetic acid (DTPA, 100 μM) to prevent non-specific, divalent metal cation oxidation for 30 min. Reactions were halted by addition of catalase. Chlorotaurine was quantified using the 3,3-,5,5-tetramethylbenzidine (TMB) assay. Briefly, 400 μL of reaction solution was mixed with 100 μL of 2 mM TMB, 100 μM NaI containing 10% dimethylformamide (DMF) in 400 mM acetate buffer (pH 5.4). After 5 min, absorbance (650 nm) was recorded on a UV/Vis spectrophotometer (Agilent Model 8453).
MPO-catalyzed HOCl Production: MPO (20 nM) was incubated with H2O2 (50 μM), NaCl (150 mM), taurine (5 mM) and increasing concentrations of KYC in a phosphate buffer (100 mM, pH 7.4) containing diethylene triamine pentaacetic acid (DTPA, 100 μM) to prevent non-specific, divalent metal cation oxidation for 30 min. Reactions were halted by addition of catalase (2,000 units/mL). Chlorotaurine was quantified using the TMB assay (66). Briefly, 400 μL of reaction solution was mixed with 100 μL of 2 mM TMB, 100 μM NaI containing 10% dimethylformamide (DMF) in 400 mM acetate buffer (pH 5.4). After 5 min, absorbance (650 nm) was recorded on a UV/Vis spectrophotometer (Agilent Model 8453).

MPO [2] = target: T1, MPO; assay: MPO-mediated LDL oxidation (conjugated diene formation, 234 nm); assay type: biochemical; set-up: purchased Lee Biosolutions (St. Louis, Mo.); details: 25 μM; for MPO/H2O2/nitrite-mediated LDL oxidation (in words): H2O2 100 μM, NaNO2 100 μM; for MPO/H2O2-mediated LDL oxidation in the absence of nitrite (in words): without NaNO2
Method: MPO-mediated oxidation of LDL. […] LDL oxidation was monitored at 234 nm at room temperature on a HP UV/VIS spectrometer. Absorbance traces represent the average of duplicate experiments.
MPO-mediated LDL Oxidation. […] Rates of LDL oxidation were monitored at room temperature at 234 nm, the wavelength maximum for conjugated dienes.
MPO-mediated LDL Conjugated Diene Formation: Reaction mixtures contained LDL (0.15 mg/mL), NaNO2 (100 μM), H2O2 (100 μM), MPO (20 nM) and increasing concentrations of KYC or equimolar concentrations of various compounds in a phosphate buffer (100 mM, pH 7.4) containing DTPA (100 μM). Rates of LDL conjugated diene formation were determined by following changes in absorbance at 234 nm, the wavelength maximum for conjugated dienes, on a UV-Vis spectrophotometer (Agilent Model 8453) at room temperature.

SS/Mcw rat hearts = assay: Ischemia/reperfusion injury in isolated perfused hearts; details: FIG. 5B
Description: Ischemia/Reperfusion (I/R) Injury in Isolated Hearts. Rats used in this study received humane care in compliance with the Guide for the Care and Use of Laboratory Animals, by the National Research Council. Rats were maintained on a low salt (0.4% NaCl) diet with unlimited access to water. Environmental influences were minimized by maintaining rats in identical housing conditions. Dahl S (SS/Mcw male rats at 8 weeks of age were used for this study.
Modified Krebs-Henseleit bicarbonate buffer was prepared containing the following components (in mM): 118.5 NaCl, 25.0 NaHCO3, 4.8 KCl, 1.2 MgSO4.6H2O, and 1.2 KH2PO4 (pH 7.4 when gassed with 95% O2-5% CO2) in which the calcium content was 1.8. Glucose (11.1 mM) was added to the perfusate. Before use, all perfusion fluids were filtered through cellulose acetate membranes with a pore size of 5 μm. To this perfusate, drugs (KAA, KYC) were added as needed. Animals were weighed, and heparin was administered intraperitoneally based on weight (150 IU/kg). Anesthesia was induced with pentobarbital sodium (30 mg/kg ip). […] Left ventricular pressure (LVP) was measured isovolumetrically with a transducer connected to a thin, saline-filled latex balloon inserted into the left ventricle through the mitral valve from an incision in the left atrium. […]

[3] = Solubility in aqueous buffers; assay type: physicochemical
MPO [4] = target: T1, MPO; details: reported, order of magnitude; cited from earlier work

Compound | MPO/H2O2/nitrite-mediated LDL oxidation (in words) (MPO [2]) | MPO/H2O2-mediated LDL oxidation in the absence of nitrite (in words) (MPO [2]) | further results
N-acetyl Lysyltyrosylcyeteine amide [KYS] | accelerated LDL oxidation | – | Dose-dependent effect on MPO-catalyzed HOCl production (in words) (MPO [1]): failed to inhibit; also recorded: not an inhibitor
N[C@@H](Cc1ccc(O)cc1)C(=O)O [Tyr, tyrosine] | accelerated and enhanced | increased | Effect on MPO HOCl production at equimolar concentration (in words) (MPO [1]): little, if any effect; Effect on MPO HOCl production at equimolar concentration (in words) (MPO [1]; listed as Tyrosine): little if any effect
N[C@@H](Cc1c[nH]c2ccccc12)C(=O)O [Trp, tryptophan] | did not inhibit but actually enhanced | increased | Effect on MPO HOCl production at equimolar concentration (in words) (MPO [1]): effective inhibitor
CC(=O)N[C@@H](CCCCN)C(=O)N[C@@H](Cc1c[nH]c2ccccc12)C(=O)N[C@@H](CS)C(N)=O [KWC] (Ac-Lys-Trp-Cys-NH2) | – | – | Cardioprotection in SS/Mcw rat hearts (in words) (SS/Mcw rat hearts): increase cardioprotection
CC(=O)N[C@@H](CCCCN)C(=O)N[C@@H](Cc1ccccc1)C(=O)N[C@@H](CS)C(N)=O [KFC, N-acetyl Lysylphenylalanylcysteine amid] (Ac-Lys-Phe-Cys-NH2) | increased the lag phase and delayed, but did not totally inhibit | – | Dose-dependent effect on MPO-catalyzed HOCl production (in words) (MPO [1]): weaker inhibitor
N[C@@H](Cc1ccc(O)cc1)C(=O)N[C@@H](CS)C(=O)O [YC, reference compound] (H-Tyr-Cys-OH; N-terminus and C-terminus assumed) | – | – | Solubility in water / aqueous buffers (in words) [3]: difficult to dissolve in aqueous buffers
N[C@@H](CCC(=O)N[C@@H](CS)C(=O)NCC(=O)O)C(=O)O [GSH, glutathione] | ineffective | inhibited; also recorded: did not increase LDL oxidation | Rate of reaction with MPO/H2O2 systems (MPO [4]): 10 to 100 M⁻¹ s⁻¹
